What was measured:
Type in all cases: physicochemical
[1] = Effect of crimping on amount of paclitaxel on manually coated stents (HPLC); details: manual coating, after crimping
From the text: Prior to being deployed inside a blood vessel, some vascular stents must be crimped onto a balloon-tipped catheter. Once the stent is positioned on the catheter, the catheter-stent assembly is advanced in the blood vessel to the site of obstruction. The balloon is then expanded, which deploys the stent in its proper position.
Since the manual coating method leads to uneven, fragile coating (see Examples 1-3), it seemed likely that the process of crimping would exacerbate the problem of flaking and drug loss. To demontstrate this problem, the amount of paclitaxel on stents before and after crimping was determined. […] Each stent was then removed from the reservoir, shaken briskly, and allowed to dry.

[2] = Effect of stent expansion on paclitaxel content of spin-coated stents (HPLC); details: spin-coated 12,000 RPM two seconds, 44 mg/ml ethanolic paclitaxel
From the text: After a stent is crimped onto a catheter as in example 4, it is ready for deployment in the body. The stent is properly positioned with a catheter, and is then expanded, for example by inflation of a balloon tip around which the stent is mounted. The balloon inflation expands the stent and forces it into proper position in the wall of the hollow organ. This has an additional physical impact on the stent, and has the potential to further degrade its coating.

[3] = Amount of paclitaxel deposited on Palmaz-Schatz stents, manual coating method (HPLC)
Method: In this example, Palmaz-Schatz stents were coated with paclitaxel using a manual method. The amount of paclitaxel deposited was then determined.
Each stent was then removed from the reservoir, shaken briskly, and allowed to dry. […] The solvent system consisted of 45% acetonitrile and 55% water delivered by a pair of Gilson 305/306 pumps with a flow rate of 1.5 ml/minute.

[4] = Effect of crimping on amount of paclitaxel on spin-coated stents (HPLC)
From the text: Each stent was then removed from the reservoir, shaken briskly, and allowed to dry.

CC(=O)O[C@H]1C(=O)[C@@]2(C)[C@H]([C@H](OC(=O)c3ccccc3)[C@]3(O)C[C@H](OC(=O)[C@H](O)[C@@H](NC(=O)c4ccccc4)c4ccccc4)C(C)=C1C3(C)C)[C@]1(OC(C)=O)CO[C@@H]1C[C@@H]2O [Paclitaxel, paclitaxel]
Amount of drug—crimped (mean ± standard deviation) ([1]; paclitaxel 37 mg/ml): 57.9 ± 33.0 µg
Amount of drug—crimped (mean ± standard deviation) ([1]; paclitaxel 42 mg/ml): 127.1 ± 34.6 µg
Amount of drug—crimped (mean ± standard deviation) ([1]; paclitaxel 66 mg/ml): 106.3 ± 53.8 µg
paclitaxel amount, expanded stent ([2]; crimp-mounted, expanded in water): 26.9 µg
mean paclitaxel amount, unexpanded stents ([2]; unexpanded): 32.8±5.9 μg/stent
Amount of drug deposited (mean ± standard deviation) ([3]; paclitaxel 13 mg/ml in 95% ethanol): 19.5 ± 7.7 µg
Amount of drug deposited (mean ± standard deviation) ([3]; paclitaxel 27 mg/ml in 95% ethanol): 59.8 ± 17.6 µg
Amount of drug deposited (mean ± standard deviation) ([3]; paclitaxel 37 mg/ml in 95% ethanol): 80.4 ± 27.7 µg
Amount of drug deposited (mean ± standard deviation) ([3]; paclitaxel 42 mg/ml in 95% ethanol): 141.3 ± 43.0 µg
Amount of drug deposited (mean ± standard deviation) ([3]; paclitaxel 66 mg/ml in 95% ethanol): 198.3 ± 72.0 µg
Amount of drug—crimped (mean ± standard deviation) ([4]; paclitaxel 18 mg/ml): 6.4 ± 2.1 µg
Amount of drug—crimped (mean ± standard deviation) ([4]; paclitaxel 28 mg/ml): 12.6 ± 1.2 µg

Reference: patent publication US20030215564A1, “Method and apparatus for coating an endoprosthesis” (priority 2002, published 2003)
